Assay results taken from patent US11065244B2, “Methods of use of tetrahydroberberine (THB)” (DIGNITY HEALTH, priority 2010, dated 2021).

Key:
Assay type in all cases: cell-based
neuronal KATP channels = biological target: T1, neuronal KATP channels (Rattus norvegicus, UniProt P70673+Q09429); test: Rotenone-induced outward current in voltage-clamp mode in the presence of the D2 receptor antagonist sulpiride; settings: 100 mM substance as printed; sulpiride present; VH −30 mV; from 125.8±37.1 pA; 6 neurons; p<0.01
T1 construct: functional KATP channels natively expressed on midbrain dopamine neurons; from tissue; host or cells: acutely dissociated dopaminergic neurons of rat substantia nigra pars compacta
Experimental: The protocol for preparation of single neurons from the rat SNc was approved by the Institutional Animal Care and Use Committee of the Barrow Neurological Institute. Single DA neurons were acutely dissociated from the SNc of 2-3-week-old Wistar rats following the protocol as previously described. Briefly, rats were anesthetized with isoflurane, and brain tissue was rapidly removed and immersed in cold (2-4° C.) dissection solution which contained: 136.7 mM NaCl, 5 mM KCl, 0.1 mM Na2HPO4, 0.2 mM KH2PO4, 9.84 mM HEPES, 16.6 mM D-glucose, 21.9 mM sucrose, pH 7.3, 330 mOsm, oxygenated with 100% O2 [8]. Three 400-μm coronal slices containing the SNc were cut using a vibrotome (Vibroslice 725M, WPI, Sarasota, Fla.). After cutting, slices were continuously bubbled with 95% O2-5% CO2 at room temperature (22±1° C.) for at least one hour in artificial cerebrospinal fluid (ACSF), which contained: 124 mM NaCl, 5 mM KCl, 24 mM NaHCO3, 1.3 mM MgSO4, 1.2 mM KH2PO4, 2.4 mM CaCl2, and 10 mM glucose, pH 7.4. Thereafter, slices were treated with pronase (1 mg per 6 ml) at 31° C. for 30 minutes in ACSF. The SNc was identified in a coronal slice using a stereo microscope with reference to the rat brain atlas, and was micro-punched out from slices using a well-polished needle. One punched piece was then transferred to a 35-mm culture dish filled with well-oxygenated standard extracellular solution, which contained: 150 mM NaCl, 5 mM KCl, 1 mM MgCl2, 2 mM CaCl2, 10 mM glucose 10, and 10 mM HEPES, pH 7.4 (with Tris-base). The punched piece was then dissociated mechanically using a fire-polished micro-Pasteur pipette under an inverted microscope (Olympus IX-70, Lake Success, N.Y.). The separated cells adhered to the bottom of the culture dish within 30 minutes. […]
Perforated patch whole-cell recording techniques were employed as previously described. […] The liquid junction potential was 14 mV calculated using Clamplex 9.2 (Axon Instruments, Foster City, Calif.) and corrections were made for junction potentials post-hoc. […]

Kir6.2SUR1 KATP channels = biological target: T2, Kir6.2SUR1 KATP channels (Homo sapiens, UniProt Q09428+Q14654); test: Patch-clamp cell attached single-channel recording of transfected Kir6.2SUR1 channels in HEK-293 cells
T2 construct: expressed in transfected cells; host or cells: HEK-293
Experimental: In β-cells, the dominant subtype of KATP is the Kir 6.2SUR1 subtype, as earlier described. Cells transiently transfected with the KATP Kir 6.2SUR1 channel subtype were evaluated for membrane potential and action potential firing using cell-attached recording in the presence or absence of 100 μm THB (FIG. 8A).
To further determine the effects of THB and Ipt on pancreatic β-cell-type KATP channels, the inventor examined the effects of THB or Ipt on the transfected Kir6.2SUR1 KATP channels in HEK-293 cells.

[1] = biological target: T3, pancreatic β-cell KATP channels (Rattus norvegicus, UniProt P70673+Q09429); test: Whole-cell KATP currents induced by ramp pulses in rat pancreatic β-cells; settings: 100 μM bath application; external glucose 5.5 mM; ramp −90 to −50 mV
T3 construct: Single Channel Currents of KATP Channels in Rat Pancreatic β-Cells; from tissue; host or cells: rat pancreatic β-cells
Experimental: To determine whether or not THB and Ipt can block pancreatic β-cell KATP channels, whole-cell currents induced by repetitive ramp pulses from −90 to −50 mV (at 0.2 Hz) were recorded in voltage-clamp mode (external glucose=5.5 mM).

[2] = biological target: T3, pancreatic β-cell KATP channels; test: Inside-out patch single channel recording in rat pancreatic β-cells, ATP free solution; settings: bath-applied

T3 sequence (P70673 whole entry): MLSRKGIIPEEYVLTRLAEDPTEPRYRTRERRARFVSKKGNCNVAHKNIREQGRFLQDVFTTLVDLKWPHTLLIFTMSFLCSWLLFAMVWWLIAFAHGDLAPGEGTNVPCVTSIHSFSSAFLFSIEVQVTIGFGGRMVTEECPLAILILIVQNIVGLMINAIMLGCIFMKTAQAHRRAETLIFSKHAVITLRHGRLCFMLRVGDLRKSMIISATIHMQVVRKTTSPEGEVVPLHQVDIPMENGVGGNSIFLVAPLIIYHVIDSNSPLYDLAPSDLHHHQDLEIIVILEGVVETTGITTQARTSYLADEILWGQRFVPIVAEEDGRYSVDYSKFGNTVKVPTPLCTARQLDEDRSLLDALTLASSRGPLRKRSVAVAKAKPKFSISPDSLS
T3 sequence (Q09429 whole entry): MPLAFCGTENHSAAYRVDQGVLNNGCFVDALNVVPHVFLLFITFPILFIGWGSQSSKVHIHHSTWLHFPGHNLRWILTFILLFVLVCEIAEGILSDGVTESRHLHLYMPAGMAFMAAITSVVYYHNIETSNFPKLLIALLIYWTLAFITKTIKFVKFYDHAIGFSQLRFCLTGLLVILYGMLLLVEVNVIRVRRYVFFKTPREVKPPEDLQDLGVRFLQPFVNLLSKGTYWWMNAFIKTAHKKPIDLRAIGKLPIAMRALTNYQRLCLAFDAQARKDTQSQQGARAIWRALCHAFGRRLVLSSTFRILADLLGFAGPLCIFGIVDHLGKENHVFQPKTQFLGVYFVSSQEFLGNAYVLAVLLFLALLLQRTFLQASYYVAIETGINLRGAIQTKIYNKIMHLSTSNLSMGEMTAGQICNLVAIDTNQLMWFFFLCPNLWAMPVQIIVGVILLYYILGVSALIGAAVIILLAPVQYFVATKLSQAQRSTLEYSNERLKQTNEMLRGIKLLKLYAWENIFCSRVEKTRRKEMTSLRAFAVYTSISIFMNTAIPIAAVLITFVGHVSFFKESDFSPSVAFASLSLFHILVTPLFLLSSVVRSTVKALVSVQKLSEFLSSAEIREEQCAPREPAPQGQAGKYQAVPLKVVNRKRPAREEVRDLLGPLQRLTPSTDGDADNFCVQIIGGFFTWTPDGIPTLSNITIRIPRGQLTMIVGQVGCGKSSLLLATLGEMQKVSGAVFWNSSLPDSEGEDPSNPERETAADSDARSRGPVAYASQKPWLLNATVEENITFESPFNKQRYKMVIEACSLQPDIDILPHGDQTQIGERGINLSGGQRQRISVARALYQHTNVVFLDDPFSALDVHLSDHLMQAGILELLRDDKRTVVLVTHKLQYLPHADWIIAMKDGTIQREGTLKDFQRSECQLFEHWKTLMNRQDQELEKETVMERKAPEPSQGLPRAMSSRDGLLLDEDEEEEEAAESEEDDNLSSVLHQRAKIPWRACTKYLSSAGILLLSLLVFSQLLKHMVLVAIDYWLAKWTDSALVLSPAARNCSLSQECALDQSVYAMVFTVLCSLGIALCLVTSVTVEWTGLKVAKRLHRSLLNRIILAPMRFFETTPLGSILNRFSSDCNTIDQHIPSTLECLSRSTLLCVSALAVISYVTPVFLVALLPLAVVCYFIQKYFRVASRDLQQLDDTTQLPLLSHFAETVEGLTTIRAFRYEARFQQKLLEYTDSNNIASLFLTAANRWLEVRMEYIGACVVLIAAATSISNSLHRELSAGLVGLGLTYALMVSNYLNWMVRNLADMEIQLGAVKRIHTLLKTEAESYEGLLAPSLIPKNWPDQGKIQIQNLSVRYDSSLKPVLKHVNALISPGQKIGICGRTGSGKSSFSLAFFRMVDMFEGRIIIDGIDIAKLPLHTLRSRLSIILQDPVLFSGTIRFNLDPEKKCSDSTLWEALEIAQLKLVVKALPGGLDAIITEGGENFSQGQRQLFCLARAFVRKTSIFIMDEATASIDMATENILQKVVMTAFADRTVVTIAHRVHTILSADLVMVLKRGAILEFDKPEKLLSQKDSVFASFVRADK
T2 sequence (Q14654 whole entry): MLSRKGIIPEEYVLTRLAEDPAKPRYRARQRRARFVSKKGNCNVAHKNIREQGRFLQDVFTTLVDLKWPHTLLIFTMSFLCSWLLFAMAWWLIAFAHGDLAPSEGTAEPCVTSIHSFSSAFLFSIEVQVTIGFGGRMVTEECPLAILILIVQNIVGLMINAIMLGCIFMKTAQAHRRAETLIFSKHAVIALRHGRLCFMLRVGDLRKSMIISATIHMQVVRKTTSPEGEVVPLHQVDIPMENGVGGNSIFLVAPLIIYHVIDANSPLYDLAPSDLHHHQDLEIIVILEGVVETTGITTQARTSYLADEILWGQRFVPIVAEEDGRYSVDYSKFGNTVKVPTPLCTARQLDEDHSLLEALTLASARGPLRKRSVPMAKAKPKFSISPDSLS
T2 sequence (Q09428 whole entry): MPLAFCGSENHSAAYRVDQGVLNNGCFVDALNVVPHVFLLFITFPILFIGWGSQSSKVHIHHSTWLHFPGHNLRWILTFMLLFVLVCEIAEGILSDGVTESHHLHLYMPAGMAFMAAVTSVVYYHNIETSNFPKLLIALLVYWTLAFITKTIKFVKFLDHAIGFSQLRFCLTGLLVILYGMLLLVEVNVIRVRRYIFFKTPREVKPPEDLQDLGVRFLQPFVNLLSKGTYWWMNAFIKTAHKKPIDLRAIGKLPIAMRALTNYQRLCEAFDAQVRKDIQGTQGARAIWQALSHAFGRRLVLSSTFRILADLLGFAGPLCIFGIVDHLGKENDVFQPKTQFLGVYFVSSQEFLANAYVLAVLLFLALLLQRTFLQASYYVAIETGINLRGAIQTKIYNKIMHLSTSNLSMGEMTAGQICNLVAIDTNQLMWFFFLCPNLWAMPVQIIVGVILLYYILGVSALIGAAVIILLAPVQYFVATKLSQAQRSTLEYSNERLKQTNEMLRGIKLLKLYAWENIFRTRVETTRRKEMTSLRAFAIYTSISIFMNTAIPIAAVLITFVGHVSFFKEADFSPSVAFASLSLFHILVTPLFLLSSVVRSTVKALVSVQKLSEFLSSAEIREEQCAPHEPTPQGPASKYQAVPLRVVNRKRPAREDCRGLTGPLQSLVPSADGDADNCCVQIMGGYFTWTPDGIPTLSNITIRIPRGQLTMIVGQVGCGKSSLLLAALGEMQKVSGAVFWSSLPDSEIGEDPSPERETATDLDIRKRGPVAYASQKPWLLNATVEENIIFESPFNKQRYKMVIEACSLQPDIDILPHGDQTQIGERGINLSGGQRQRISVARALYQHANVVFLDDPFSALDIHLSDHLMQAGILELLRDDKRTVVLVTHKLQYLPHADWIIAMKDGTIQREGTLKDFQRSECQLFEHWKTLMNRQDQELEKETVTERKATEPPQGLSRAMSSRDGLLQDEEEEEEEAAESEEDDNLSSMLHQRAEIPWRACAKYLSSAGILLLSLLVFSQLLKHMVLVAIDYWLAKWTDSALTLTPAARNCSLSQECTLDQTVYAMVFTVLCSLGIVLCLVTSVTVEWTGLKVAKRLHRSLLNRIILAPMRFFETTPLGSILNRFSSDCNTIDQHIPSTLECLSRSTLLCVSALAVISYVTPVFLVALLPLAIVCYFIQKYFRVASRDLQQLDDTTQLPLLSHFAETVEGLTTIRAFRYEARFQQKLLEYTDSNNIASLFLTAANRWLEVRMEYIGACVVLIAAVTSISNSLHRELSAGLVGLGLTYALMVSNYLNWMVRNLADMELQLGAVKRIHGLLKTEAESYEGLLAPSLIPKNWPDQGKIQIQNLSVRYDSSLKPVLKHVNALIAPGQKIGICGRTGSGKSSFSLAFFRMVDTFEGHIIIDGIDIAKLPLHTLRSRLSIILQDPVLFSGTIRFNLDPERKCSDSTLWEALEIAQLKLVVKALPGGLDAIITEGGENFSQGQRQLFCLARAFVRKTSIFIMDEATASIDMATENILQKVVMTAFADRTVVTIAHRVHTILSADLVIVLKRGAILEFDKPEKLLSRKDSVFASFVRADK
T1 sequence (P70673 whole entry): as the sequence (P70673 whole entry) above
T1 sequence (Q09429 whole entry): as the sequence (Q09429 whole entry) above

`COc1ccc2c(c1OC)CN1CCc3cc4c(cc3C1C2)OCO4` (centres unmarked) [THB, tetrahydroberberine] was tested, and the “rotenone-induced outward current amplitude after addition of substance” value (neuronal KATP channels) was 52.5±25.7 pA, the “normalized NPo value” (Kir6.2SUR1 KATP channels; 100 μM, control as 1, THB 6 patches, Ipt 8 patches) was 0.51±0.05 and the “change in channel activity NP0 compared to control” value (Kir6.2SUR1 KATP channels; 100 μm THB, three experiments, FIG. 8B) was 50%. The “effect on β-cell KATP channel-mediated whole-cell currents” value [1] was “reduced these β-cell KATP channel-mediated currents” and the “effect on single channel activities opened by ATP free solution” value [2] was “inhibited these single channel activities”.
